US11690824B2, “Antibacterial compounds” (THE GENERAL HOSPITAL CORPORATION, priority 2018, dated 2023)
≈ marks a conversion by molar mass, not a printed value.

Assays:
S. aureus ATCC 33591 = assay: MIC assay; assay type: cell-based; details: Staphylococcus aureus, ATCC33591; S. aureus ATCC 33591; read-out: Minimum inhibitory concentration
From the text: (§1) Bacterial strains, growth conditions, and persister isolation. Methicillin-resistant S. aureus strains, MW2 BAA-1707, ATCC 33591, and JE2, methicillin-susceptible S. aureus strains, NCTC 8325, Newman, and ATCC 29213, vancomycin-resistant S. aureus strain, VRS1, Enterococcus faecium E007, vancomycin-resistant E. faecium strains, C68,^7 WB312, and WC196, Klebsiella pneumoniae WGLW2 (BEI Resources, Manassas, Va., USA), Acinetobacter baumannii ATCC 17978, Pseudomonas aeruginosa PA14, and Enterobacter aerogenes ATCC 13048 were used to test antimicrobial activity (Table 1). S. aureus strains were grown in tryptic soy broth (TSB) (BD, Franklin Lakes, N.J., USA), and E. faecium was grown in brain-heart infusion (BHI) broth (BD, Franklin Lakes, N.J., USA) at 37° C. K. pneumoniae, A. baumannii, P. aeruginosa, and E. aerogenes were grown in Luria Bertani (LB) broth (BD, Franklin Lakes, N.J., USA) at 37° C.
(§2) Minimal inhibitory concentration (MIC) assay. The MICS of antibiotics were determined by the standard micro-dilution method recommended by the Clinical and Laboratory Standards Institute. MIC assays were conducted in biological triplicate.

S. aureus JE2 = assay: MIC assay; assay type: cell-based; details: Staphylococcus aureus; S. aureus JE2; read-out: Minimum inhibitory concentration
From the text: as §1, §2

S. aureus ATCC 29213 = assay: MIC assay; assay type: cell-based; details: Staphylococcus aureus, ATCC29213; S. aureus ATCC 29213; read-out: Minimum inhibitory concentration
From the text: as §1, §2

S. aureus NCTC 8325 = assay: MIC assay; assay type: cell-based; details: Staphylococcus aureus, NCTC8325; S. aureus NCTC 8325; read-out: Minimum inhibitory concentration
From the text: as §1, §2

S. aureus Newman = assay: MIC assay; assay type: cell-based; details: Staphylococcus aureus; S. aureus Newman; read-out: Minimum inhibitory concentration
From the text: as §1, §2

S. aureus VRS1 = assay: MIC assay; assay type: cell-based; details: Staphylococcus aureus; S. aureus VRS1; read-out: Minimum inhibitory concentration
From the text: as §1, §2

[1] = system: exponential-phase MRSA MW2; assay: Killing kinetics assay; assay type: cell-based, S. aureus; details: 16 μg/ml (4× MIC), ~10^7 CFU/mL
Experimental: Killing kinetics assay. An MRSA MW2 overnight culture was diluted 1:10,000 in 25 mL TSB (˜10^5 CFU/mL) in a 250 mL flask and incubated at 37° C. with shaking at 200 rpm for 4.5 h until it reached exponential-phase (˜2×10^7 CFU/mL). 1 mL of the exponential phase cell culture was mixed with 1 mL of pre-warmed TSB containing twice the desired concentrations of antibiotics in a 96-well assay block (Corning Costar 3960). The assay block was incubated at 37° C. with shaking at 200 rpm. At every hour, 400 μl aliquots were taken, washed once with phosphate buffered saline (PBS), serially diluted and spot-plated onto tryptic soy agar (TSA, BD) plates. After incubation at 37° C. for overnight, colonies were counted to enumerate the number of cells. These experiments were conducted in biological triplicate.

[2] = system: vancomycin-resistant Enterococcus faecium strains; assay: MIC against vancomycin-resistant strains; assay type: cell-based
From the text: as §1, §2

MRSA MW2 [3] = assay: Transmission electron microscopy; details: 4× MIC for 2 h
[4] = system: MRSA MW2 persisters (stationary phase); assay: Persister killing assay; assay type: cell-based, S. aureus
Experimental: Persister killing assay. […] Persister cells of MRSA MW2 were prepared by growing cultures overnight to stationary phase at 37° C. at 200 rpm and washing 3 times with PBS. 1 mL of ˜2×10^8 CFU/mL MRSA persisters was added to 1 mL of PBS containing 2-fold of the desired concentration of antibiotics in a 96-well assay block (Corning Costar 3960). The assay block was incubated at 37° C., with shaking at 200 rpm. At specific times, […] were removed, washed once with PBS, serially diluted and spot-plated on TSA plates. Colonies were counted to enumerate the number of live cells after overnight incubation at 37° C. These experiments were conducted in biological triplicate.

E. faecium WB312 = assay: MIC assay; assay type: cell-based, Enterococcus faecium; details: Enterococcus faecium; E. faecium WB312; read-out: Minimum inhibitory concentration
From the text: as §1, §2

E.faecium E007 = assay: MIC assay; assay type: cell-based, Enterococcus faecium; details: Enterococcus faecium; E.faecium E007; read-out: Minimum inhibitory concentration
From the text: as §1, §2

E. faecium WC196 = assay: MIC assay; assay type: cell-based, Enterococcus faecium; details: Enterococcus faecium; E. faecium WC196; read-out: Minimum inhibitory concentration
From the text: as §1, §2

E. faecium C68 = assay: MIC assay; assay type: cell-based, Enterococcus faecium; details: Enterococcus faecium; E. faecium C68; read-out: Minimum inhibitory concentration
From the text: as §1, §2

MRSA MW2 [5] = assay: Serial passage resistance development; assay type: cell-based, S. aureus; details: 25 days, sub-MIC concentrations
Experimental: Serial passage resistance development. […] Briefly, an extended range of concentrations of nTZDpa was generated by two-fold serial dilution with cation-adjusted Mueller Hinton (CaMH) broth (Difco, Detroit, USA) from three different starting concentrations (20, 24, and 32 μg/mL) covering 0.1875 to 32.0 μg/mL, which extended over three rows of the 96-well plate. Three sets of the extended gradient of nTZDpa were created in the 96-well plate to provide triplicates of the experiment. […] MRSA MW2 overnight cultures were adjusted to 1×10^6 CFU/mL in CaMH broth, and 50 μL of the diluted cultures were dispensed into the 96-well plates containing 50 μL of the extended gradient of antibiotics. After incubation for 24 h at 35° C., bacterial growth was determined by measuring optical density at 600 nm using a SpectraMax plate reader (Molecular Devices, Sunnyvale, Calif.), and growth was defined as an optical density reading of ≥0.1. Bacterial cells growing at the highest concentration of the antimicrobial (just below the MIC) were diluted 1:1000 in CaMH broth and then used to inoculate the next day's serial-passage plate. The remaining bacterial cells were stored at −80° C. in CaMH broth with 16% glycerol. This process was repeated for 25 days.

## O=C(O)c1c(Sc2ccccc2)c2cc(Cl)ccc2n1Cc1ccc(Cl)cc1 [nTZDpa]
S. aureus ATCC 33591
  MIC: 4 µg/mL (≈ 9.34 µM)
S. aureus JE2
  MIC: 4 µg/mL (≈ 9.34 µM)
S. aureus ATCC 29213
  MIC: 4 µg/mL (≈ 9.34 µM)
S. aureus NCTC 8325
  MIC: 4 µg/mL (≈ 9.34 µM)
S. aureus Newman
  MIC: 4 µg/mL (≈ 9.34 µM)
S. aureus VRS1
  MIC: 4 µg/mL (≈ 9.34 µM)
[1]
  time to complete eradication of exponential-phase MRSA MW2: ≤ 2 h
[2]
  MIC: 4 µg/mL (≈ 9.34 µM)
MRSA MW2 [3]
  cell morphology by TEM: formation of mesosome-like structures in most cells, abnormal cell division, and cell lysis
[4]; 8 μg/ml nTZDpa and 80 μg/ml gentamicin
  persister killing: 3 logs
[4]; 16 μg/ml nTZDpa and 10 μg/ml gentamicin
  time to eradicate 100% of persisters: ≤ 3 h
[4]; 16 μg/ml nTZDpa combined with 10× MIC of other aminoglycosides
  killing of MRSA persisters in combination: synergistic killing of MRSA persisters
[4]; 32 μg/mL
  reduction of MRSA persisters: ~2 log
[4]; 64 μg/mL, ~5×10^7 CFU/mL
  time to complete eradication of persisters: ≤ 2 h
E. faecium WB312
  MIC: 4 µg/mL (≈ 9.34 µM)
E.faecium E007
  MIC: 4 µg/mL (≈ 9.34 µM)
E. faecium WC196
  MIC: 4 µg/mL (≈ 9.34 µM)
E. faecium C68
  MIC: 4 µg/mL (≈ 9.34 µM)
MRSA MW2 [5]
  increase of MIC over wild-type after serial passage: no increase in the nTZDpa MIC was observed
